# Source: patent US7226748B2, “HSC70 directed diagnostics and therapeutics for multidrug resistant neoplastic disease” (priority 2003, dated 2007)
# Experiments:
# [1] = tested on: antigen-positive E3 cell line; conditions: read-out: IC50 (cytotoxicities); cited from earlier work
# E3 target cells = conditions: read-out: IC50 (selective cytotoxicity); cited from earlier work
# lysosomal hydrolases = conditions: cited from earlier work
# [2] = tested on: hematological tumor cells; test: HSC70 vaccine protection against hematological tumor cells in mice; assay type: in vivo; conditions: mice vaccinated prior to injection of tumor cells versus not vaccinated
molecule,measurement,setting,value
"O=c1[nH]c(=O)n([C@H]2C[C@H](O)[C@@H](CO)O2)cc1F [FUDR, 5-fluoro-2′-deoxyuridine]",IC50,[1],0.4 nM
"CC(=O)[C@]1(O)Cc2c(O)c3c(c(O)c2[C@@H](O[C@H]2C[C@H](N)[C@H](O)[C@H](C)O2)C1)C(=O)c1ccccc1C3=O [Ida, Idarubicin]",IC50,E3 target cells,120 nM
Ala-Leu-Dau [Ala-Leu-Dau derivative],time for conversion back to the free drug by lysosomal hydrolases,lysosomal hydrolases,2 h
"HSC70: purified full length murine HSC70 protein used as vaccine antigen, may be administered with an adjuvant",tumor size,[2],smaller
